In patent US12371464B2, “Polypeptides and uses thereof” (MEDIMMUNE LIMITED, priority 2020, dated 2025):
Numbered stars: 1 amine (or outer) side, 2 acyl side, 3 side chain; on linkers, the order of the positions; unused ones are H or OH. Bridge positions count the residues as written; N and C are the ends. Square brackets hold non-standard residues; d marks the D form. Side chains are listed from the residue outwards. Ends that are not written are not given here. Peptide text beside a SMILES is read from it. * marks the point of attachment. C20 diacid = O=C(O)CCCCCCCCCCCCCCCCCCC(=O)*; C18 diacid = O=C(O)CCCCCCCCCCCCCCCCC(=O)*; γGlu = O=C(O)[C@H](CCC(=O)[*:2])N[*:1]; αMeF = C[C@](N)(Cc1ccccc1)C(=O)O; Aib = CC(C)(N)C(=O)O

Columns and labels:
[1] = target: T1, human calcitonin receptor (hCTR) (Homo sapiens, UniProt P30988); experiment: cAMP production in 1321N1 cells with stable recombinant expression of human calcitonin receptor (hCTR); type: cell-based; conditions: 1321N1 cells expressing human calcitonin receptor
T1 construct: expressed in transfected cells
T1 sequence (P30988 25-474): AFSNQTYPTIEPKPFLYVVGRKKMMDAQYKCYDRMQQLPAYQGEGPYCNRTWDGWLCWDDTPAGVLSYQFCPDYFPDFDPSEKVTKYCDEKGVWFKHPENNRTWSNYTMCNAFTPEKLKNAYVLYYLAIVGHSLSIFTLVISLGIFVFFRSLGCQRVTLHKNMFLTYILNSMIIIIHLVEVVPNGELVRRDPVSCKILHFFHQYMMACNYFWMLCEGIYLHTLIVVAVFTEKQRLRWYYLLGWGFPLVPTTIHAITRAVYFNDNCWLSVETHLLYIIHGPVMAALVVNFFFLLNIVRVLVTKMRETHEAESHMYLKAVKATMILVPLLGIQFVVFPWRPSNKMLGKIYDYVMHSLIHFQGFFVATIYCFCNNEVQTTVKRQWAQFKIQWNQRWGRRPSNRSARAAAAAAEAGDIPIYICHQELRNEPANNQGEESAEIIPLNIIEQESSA
Description: (§1) The functional activities of lipidated pramlintide analogue peptides, such as cAMP production, were tested in 1321N1 cell line with stable recombinant expression of human calcitonin receptor (hCTR) or human amylin receptor (calcitonin receptor co-expressed with receptor activity modifying protein, RAMP3) (hAMYR3) or HEK cells with stable recombinant expression of rat calcitonin receptor (rat CTR) or rat amylin receptor (calcitonin receptor co-expressed with receptor activity modifying protein, RAMP3) (Rat AMYR3).
(§2) Cryopreserved cell stock was thawed rapidly in a water-bath, suspended in assay buffer (0.1% BSA (Sigma #A3059) in HBSS (Sigma #H8264) with 25 mM HEPES, pH 7.4 and containing 0.5 mM IB MX (Sigma #17018)) and spun at 240×g for 5 minutes. Cells were re-suspended in assay buffer at a batch-dependent optimized concentration (e.g. hCTR cells at 0.125×10^5 cells/mL, hAMYR3 cells at 0.125×10^5 cells/mL, rat CTR cells at 1×10^5 cells/mL, rat AMYR3 at 2×10^5 cells/mL).
(§3) The test peptide stock was prepared in DMSO and diluted in assay buffer to reach stated concentrations and transferred in duplicates into a 384-black shallow well microtitre assay plate (Corning #3676). Cells were added to the assay plate, incubated at room temperature for 30 minutes and the CAMP level measured using CAMP dynamic 2 HTRF kit (Cisbio, Cat #62AM4PEJ), following the two step protocol as per manufacturer's recommendations. The plates were read on an Envision (Perkin Elmer) using excitation wavelength of 320 nm and emission wavelengths of 620 nm & 665 nm.
(§4) Data was transformed to % Delta F as described in the manufacturer's guidelines and analyzed as percent activation of maximal amylin or calcitonin effect by 4-parameter logistic fit to determine EC50 values. The selectivity of a peptide to hAMYR vs hCTR is defined as a ratio of EC50 values at the two receptors.

[2] = target: T2, human amylin receptor (calcitonin receptor co-expressed with receptor activity modifying protein, RAMP3) (hAMYR3) (Homo sapiens, UniProt O60896+P30988); experiment: cAMP production in 1321N1 cells with stable recombinant expression of human amylin receptor (hAMYR3); type: cell-based; conditions: for Ratio (selectivity hAMYR vs hCTR, ratio of EC50 values at the two receptors): EC50 hCTR / EC50 hAMYR3; for EC50: cAMP production, 1321N1 cells expressing human amylin3 receptor
T2 construct: expressed in transfected cells
T2 sequence (P30988 25-474): T1 sequence (P30988 25-474)
T2 sequence (O60896 24-148 partner): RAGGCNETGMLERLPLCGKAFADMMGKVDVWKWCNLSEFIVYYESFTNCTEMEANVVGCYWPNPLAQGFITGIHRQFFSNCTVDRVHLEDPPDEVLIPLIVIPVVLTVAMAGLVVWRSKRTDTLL
Description: as §1, §2, §3, §4

[3] = cited from earlier work

Row | EC50 [1] | EC50 [2] | Molecule | Ratio (selectivity hAMYR vs hCTR, ratio of EC50 values at the two receptors) [2] | terminal half-life of amylin in rats [3]
1 | 1.39 nM | 0.211 nM | CC[C@H](C)[C@H](NC(=O)[C@@H]1CCCN1C(=O)CNC(=O)[C@H](Cc1ccccc1)NC(=O)[C@H](CC(N)=O)NC(=O)C(C)(C)NC(=O)[C@H](CO)NC(=O)[C@H](CO)NC(=O)[C@H](Cc1c[nH]cn1)NC(=O)[C@@H](NC(=O)[C@H](CC(C)C)NC(=O)[C@H](Cc1ccccc1)NC(=O)[C@H](CC(N)=O)NC(=O)[C@H](C)NC(=O)[C@H](CC(C)C)NC(=O)[C@H](CCCNC(=N)N)NC(=O)[C@H](CCC(N)=O)NC(=O)[C@@H](NC(=O)[C@H](C)NC(=O)[C@@H]1CSSC[C@H](NC(=O)[C@H](CCCCN)NC(=O)CC[C@H](NC(=O)CCCCCCCCCCCCCCCCC(=O)O)C(=O)O)C(=O)N[C@@H](CC(N)=O)C(=O)N[C@@H]([C@@H](C)O)C(=O)N[C@@H](C)C(=O)N[C@@H]([C@@H](C)O)C(=O)N1)[C@@H](C)O)C(C)C)C(=O)N[C@@H](CC(C)C)C(=O)N1CCC[C@H]1C(=O)N1CCC[C@H]1C(=O)N[C@H](C(=O)N[C@@H](CCCNC(=N)N)C(=O)N[C@H](C(=O)NCC(=O)N[C@@H](CO)C(=O)N[C@@H](CC(N)=O)C(=O)N[C@H](C(=O)N[C@@H](Cc1ccc(O)cc1)C(N)=O)[C@@H](C)O)C(C)C)[C@@H](C)O [Peptide 71, C18diacid-γE-K[CNTATC]ATQRLANFLVHSS(Aib)NFGPILPPTRVGSNTY-amide] ({C18 diacid-γGlu}-KCNTATCATQRLANFLVHSS[Aib]NFGPILPPTRVGSNTY-NH2; disulfide 2-7) | 7 | 
2 | 10.7 nM | 1.77 nM | CC[C@H](C)[C@H](NC(=O)[C@H](C)NC(=O)[C@@H]1CCCN1C(=O)[C@H](Cc1ccccc1)NC(=O)[C@H](CC(N)=O)NC(=O)[C@@H]1CCCN1C(=O)[C@H](CO)NC(=O)[C@H](CO)NC(=O)[C@H](Cc1c[nH]cn1)NC(=O)[C@@H](NC(=O)[C@H](CC(C)C)NC(=O)[C@H](Cc1c[nH]c2ccccc12)NC(=O)[C@H](CC(N)=O)NC(=O)[C@H](C)NC(=O)[C@H](CC(C)C)NC(=O)[C@H](CCCNC(=N)N)NC(=O)[C@H](CCC(N)=O)NC(=O)[C@@H](NC(=O)[C@H](C)NC(=O)[C@@H]1CSSC[C@H](NC(=O)[C@@H](N)CCCCNC(=O)CC[C@H](NC(=O)CC[C@H](NC(=O)CCCCCCCCCCCCCCCCCCC(=O)O)C(=O)O)C(=O)O)C(=O)N[C@@H](CC(N)=O)C(=O)N[C@@H](C)C(=O)N[C@@H](C)C(=O)N[C@@H]([C@@H](C)O)C(=O)N1)[C@@H](C)O)C(C)C)C(=O)N[C@@H](CC(C)C)C(=O)N[C@@H](CO)C(=O)N1CCC[C@H]1C(=O)N[C@H](C(=O)N[C@@H](CC(N)=O)C(=O)N[C@H](C(=O)NCC(=O)N[C@@H](CO)C(=O)N[C@@H](CC(N)=O)C(=O)N[C@H](C(=O)N[C@@H](Cc1ccc(O)cc1)C(N)=O)[C@@H](C)O)C(C)C)[C@@H](C)O [Peptide 120] (H-K([γGlu-γGlu-C20 diacid])CNAATCATQRLANWLVHSSPNFPAILSPTNVGSNTY-NH2; disulfide 2-7; N-terminus assumed) |  | 
3 | 2.02 nM |  | CC[C@H](C)[C@H](NC(=O)[C@@H]1CCCN1C(=O)CNC(=O)[C@](C)(Cc1ccccc1)NC(=O)[C@H](CC(N)=O)NC(=O)[C@H](CC(N)=O)NC(=O)[C@H](CO)NC(=O)[C@H](CO)NC(=O)[C@H](Cc1c[nH]cn1)NC(=O)[C@H](CCCNC(=N)N)NC(=O)[C@H](CC(C)C)NC(=O)[C@H](Cc1ccccc1)NC(=O)[C@H](CC(N)=O)NC(=O)[C@H](C)NC(=O)[C@H](CC(C)C)NC(=O)[C@H](CCCNC(=N)N)NC(=O)[C@H](CCC(N)=O)NC(=O)[C@@H](NC(=O)[C@H](C)NC(=O)[C@@H]1CSSC[C@H](NC(=O)[C@@H](N)CCCCNC(=O)CC[C@H](NC(=O)CCCCCCCCCCCCCCCCC(=O)O)C(=O)O)C(=O)N[C@@H](CC(N)=O)C(=O)N[C@@H]([C@@H](C)O)C(=O)N[C@@H](C)C(=O)N[C@@H]([C@@H](C)O)C(=O)N1)[C@@H](C)O)C(=O)N[C@@H](CC(C)C)C(=O)N1CCC[C@H]1C(=O)N1CCC[C@H]1C(=O)N[C@H](C(=O)N[C@@H](CCC(=O)O)C(=O)N[C@H](C(=O)NCC(=O)N[C@@H](CO)C(=O)N[C@@H](CC(N)=O)C(=O)N[C@H](C(=O)N[C@@H](Cc1ccc(O)cc1)C(N)=O)[C@@H](C)O)C(C)C)[C@@H](C)O [Peptide 16, K(γE-C18diacid)[CNTATC]ATQRLANFLRHSSNN(αMePhe)GPILPPTEVGSNTY-amide] (H-K([γGlu-C18 diacid])CNTATCATQRLANFLRHSSNN[αMeF]GPILPPTEVGSNTY-NH2; disulfide 2-7; N-terminus assumed) |  | 
4 |  |  | CC[C@H](C)[C@H](NC(=O)[C@@H]1CCCN1C(=O)CNC(=O)[C@H](Cc1ccccc1)NC(=O)[C@H](CC(N)=O)NC(=O)C(C)(C)NC(=O)[C@H](CO)NC(=O)[C@H](CO)NC(=O)[C@H](Cc1c[nH]cn1)NC(=O)[C@@H](NC(=O)[C@H](CC(C)C)NC(=O)[C@H](Cc1ccccc1)NC(=O)[C@H](CC(N)=O)NC(=O)[C@H](C)NC(=O)[C@H](CC(C)C)NC(=O)[C@H](CCCNC(=N)N)NC(=O)[C@H](CCC(N)=O)NC(=O)[C@@H](NC(=O)[C@H](C)NC(=O)[C@@H]1CSSC[C@H](NC(=O)[C@@H](N)CCCCNC(=O)CC[C@H](NC(=O)CC[C@H](NC(=O)CCCCCCCCCCCCCCCCC(=O)O)C(=O)O)C(=O)O)C(=O)N[C@@H](CC(N)=O)C(=O)N[C@@H]([C@@H](C)O)C(=O)N[C@@H](C)C(=O)N[C@@H]([C@@H](C)O)C(=O)N1)[C@@H](C)O)C(C)C)C(=O)N[C@@H](CC(C)C)C(=O)N1CCC[C@H]1C(=O)N1CCC[C@H]1C(=O)N[C@H](C(=O)NC(C)(C)C(=O)N[C@H](C(=O)NCC(=O)N[C@@H](CO)C(=O)N[C@@H](CC(N)=O)C(=O)N[C@H](C(=O)N[C@@H](Cc1ccc(O)cc1)C(N)=O)[C@@H](C)O)C(C)C)[C@@H](C)O [Peptide 89, K(γE-γE-C18diacid)[CNTATC]ATQRLANFLVHSS(Aib)NFGPILPPT(Aib)VGSNTY-amide] (H-K([γGlu-γGlu-C18 diacid])CNTATCATQRLANFLVHSS[Aib]NFGPILPPT[Aib]VGSNTY-NH2; disulfide 2-7; N-terminus assumed) | 18 | 
5 |  |  | amylin (KCNTATCATQRLANFLVHSSNNFGAILSSTNVGSNTY; not fully specified (C-terminus, bridges); cysteine pairing not given here; UniProt P10997 34-70, looked up) [native peptide hormone of which pramlintide is a synthetic analogue] |  | around 13 minutes
